How the values were obtained:
Format in all cases: in vivo, rat
[1] = test system: myeloperoxidase (MPO) activity; experiment: TNBS model of colitis, myeloperoxidase (MPO) activity; details: for MPO, mean: 72 h after TNBS
Description: (§1) In this example, the TNBS (trinitrobenzenesulfonic acid) model of colitis was used to characterize the effects of CBD alone, THC alone and a combination of CBD and THC (in two different ratios) on inflammation and in vitro motility and secretory parameters.
(§2) Colitis was evoked in male Wistar rats by intra-colonic administration of 6.7 mg TNBS in 0.25 ml 25% ethanol. The degree of inflammation was quantified using a macroscopic damage score (MDS, 0-13 scale) and myeloperoxidase (MPO) activity.
(§3) CBD was used at doses of 5, 10, 15 and 20 mg/kg. THC was used at doses of 5, 10 and 20 mg/kg. In addition THC at doses of 5 and 10 mg/kg was administered in combination with CBD at a dose of 10 mg/kg.
(§4) Doses were administered i.p., once daily starting 0.5 hour before TNBS administration and animals (n=6-11 per group) were sacrificed 72 hours after colitis induction.

[2] = test system: TNBS (trinitrobenzenesulfonic acid) model of colitis; experiment: TNBS model of colitis, macroscopic damage score (MDS); details: for MDS, mean: 72 h after TNBS, 0-13 scale
Description: as §1, §2, §3, §4

[3] = test system: mucosa-submucosa preparations; experiment: Ussing chamber, secretory response to carbachol (ΔIsc), TNBS colitis rats; details: THC alone, data not shown
Description: (§5) Using the Ussing chamber technique, secretory responses evoked by veratridine (a nerve stimulant, 1×10^−5M) were assessed and expressed as % response to carbachol (1×10−5M).
as §3, §4

[4] = test system: mucosa-submucosa preparations; experiment: Ussing chamber, secretory response evoked by veratridine (nerve stimulation), TNBS colitis rats
Description: as §5, §3, §4

| SMILES | MPO, mean ([1]; CBD 5 mg/kg i.p. once daily, vehicle 6.03) [ngHRP/mg protein] | MPO, mean ([1]; CBD 10 mg/kg i.p. once daily, vehicle 6.03) [ngHRP/mg protein] | MPO, mean ([1]; CBD 15 mg/kg i.p. once daily, vehicle 6.03) [ngHRP/mg protein] | MPO, mean ([1]; CBD 20 mg/kg i.p. once daily, vehicle 6.03) [ngHRP/mg protein] | effect on MPO across doses ([1]; CBD 5, 10, 15 and 20 mg/kg i.p.) | MDS, mean ([2]; CBD 5 mg/kg i.p. once daily, vehicle 5.46) | MDS, mean ([2]; CBD 15 mg/kg i.p. once daily, vehicle 5.46) | MDS, mean ([2]; CBD 20 mg/kg i.p. once daily, vehicle 5.46) | responses to carbachol [3] | MPO, mean ([1]; THC 5 mg/kg i.p. once daily, vehicle 3.35) [ngHRP/mg protein] | secretory response to nerve stimulation ([4]; THC 10 mg/kg i.p. alone, expressed as % response to carbachol, vehicle 24.4±8.2) | secretory responses to nerve stimulation ([4]; THC alone, data not shown) | MDS, mean ([2]; THC 5 mg/kg i.p. once daily, vehicle 6.00) | MDS, mean ([2]; THC 20 mg/kg i.p. once daily, vehicle 6.00) | dose-response relationship on MDS ([2]; THC 5, 10 and 20 mg/kg i.p.) |
| --- | --- | --- | --- | --- | --- | --- | --- | --- | --- | --- | --- | --- | --- | --- | --- |
| C=C(C)[C@@H]1CCC(C)=C[C@H]1c1c(O)cc(CCCCC)cc1O [CBD, cannabidiol] | 5.38 | 4.65 | 4.00 | 2.68 | reduced MPO in a dose dependent manner, but the effect was not significant | 6.75 | 5.60 | 4.60 |  |  |  |  |  |  |  |
| CCCCCc1cc(O)c2c(c1)OC(C)(C)[C@@H]1CCC(C)=C[C@@H]21 [THC, tetrahydrocannabinol] |  |  |  |  |  |  |  |  | not significantly increased | 4.29 | 30.3±7.5 | did not affect | 6.5 | 4.67 | bell-shaped pattern |

Source: patent US20100286098A1, “USE OF TETRAHYDROCANNABINOL AND/OR CANNABIDIOL FOR THE TREATMENT OF INFLAMMATORY BOWEL DISEASE” (GW Pharma Limited, priority 2007, published 2010)
